In patent US20220202835A1, “INJECTABLE CLORSULON COMPOSITIONS, METHODS AND USES THEREOF” (Boehringer Ingelheim Animal Health USA Inc., priority 2019, published 2022):

Columns and labels:
[1] = tested on: Fasciola hepatica; experiment: Study 2: efficacy against four week old Fasciola hepatica in cattle
[2] = Study 2: clorsulon plasma pharmacokinetics in cattle (LC-MS); format: in vivo; settings: for Maximum plasma concentrations: cattle
Description: Whole blood samples for analysis of plasma for analysis of clorsulon were collected from the jugular vein. Samples were collected in ˜7.5 mL lithium heparinized tubes for plasma preparation once prior to treatment on Day-2±1. Thereafter, blood samples were collected according to the Schedule of Operations (Table 3). The time of blood sampling was recorded, and care was taken to avoid cross-contamination of samples during sample collection, storage, and processing. Plasma was recovered from each sample, aliquoted (two aliquots) and stored frozen (at or below −20° C.) until required for assays. The cryo-tubes were labeled with Study Number, type of sample, date, Study Day/time of sampling, and animal ID.
One aliquot with plasma was used for analysis for clorsulon concentrations using currently High Performance Liquid Chromatography-Mass Spectrometry (LC-MS) methodology.
Plasma samples were assayed for clorsulon.
If quantifiable plasma concentrations were determined for an animal, pharmacokinetic analysis was performed as described below. Clorsulon plasma concentrations were determined for an animal at each sampling time, when appropriate. […] The mean concentration-time profiles will be obtained by averaging the concentrations at each sampling time point for all treated animals.
The therapeutic efficacy and pharmacokinetic parameters of clorsulon were evaluated when administered subcutaneously as 30% (w/v) clorsulon formulation to cattle experimentally infected with liver flukes (Fasciola hepatica). This study differs from Study Number 1 in that there is no administration of 10% (w/v) clorsulon and only immature (four week old) F. hepatica flukes were used.

[3] = tested on: Fasciola hepatica; experiment: Study 1: efficacy against induced Fasciola hepatica infection in cattle (fluke counts at necropsy); settings: subcutaneously to cattle at 6 and 8 mg/kg bodyweight as a 30% w/v solution

Nc1cc(C(Cl)=C(Cl)Cl)c(S(N)(=O)=O)cc1S(N)(=O)=O [clorsulon, 4-amino-6-(1,2,2-trichloroethenyl)benzene-1,3-disulfonamide]
Eff (%) against Fasciola hepatica ([1]; Group 2: 30% w/v solution, 8 mg/kg subcutaneously once on Day 0 (4 week old flukes)): 99.6% | Eff (%) against Fasciola hepatica ([1]; Group 3: 30% w/v solution, 6 mg/kg subcutaneously once on Day 0 (4 week old flukes)): 99.9% | Eff (%) against Fasciola hepatica ([1]; Group 4: 30% w/v solution, 4 mg/kg subcutaneously once on Day 0 (4 week old flukes)): 92.9% | Maximum plasma concentrations ([2]; Group 2: 30% w/v solution, 8 mg clorsulon/kg SC): 5740 ± 1160 ng/mL | Maximum plasma concentrations ([2]; Group 3: 30% w/v solution, 6 mg clorsulon/kg SC): 4430 ± 988 ng/mL | Maximum plasma concentrations ([2]; Group 4: 30% w/v solution, 4 mg clorsulon/kg SC): 3140 ± 530 ng/mL | time at which maximum plasma concentrations were reached ([2]; Groups 2-4 (4, 6, 8 mg/kg SC), 12 out of 18 animals): ≤ 12 h | efficacy against early immature (four and six week old) F. hepatica [3]: 98-100%
